According to patent US11478469B2, “Combination product of BCL-2 inhibitor and MDM2 inhibitor and use thereof in the prevention and/or treatment of diseases” (ASCENTAGE PHARMA (SUZHOU) CO., LTD., priority 2018, dated 2022):
pIC50: −log10 of the molar value.

Tests used:
[1] = system: MOLM-13-Luc systemic human AML; experiment: Systemic MOLM-13-Luc human AML xenograft model in NOD SCID mice; type: in vivo, mouse; details: compound 6 100 mg/kg qd×21 d; APG-115 100 mg/kg daily for seven days
Procedure: (1) The combined benefits of APG-115 and compound 6 for the therapy of AML was further evaluated in a difficult-to-treat disseminated MOLM-13-Luc systemic human AML model.
The MOLM-13-Luc tumor cells were maintained in vitro as suspension culture in RPMI 1640 medium supplemented with 10% heat inactivated fetal bovine serum (Gibco product), 100 U/mL penicillin and 100 μg/mL streptomycin, at 37° C. in an atmosphere of 5% CO2 in air. The tumor cells were routinely subcultured twice weekly. The cells growing in an exponential growth phase were harvested and counted for tumor inoculation.
The female NOD SCID mice were pre-treated with 2 times of 150 mg/kg cyclophosphamide, QD, at 24 hours before cell inoculation. Each mouse was inoculated with MOLM-13-Luc tumor cells (2×10^6/mouse) in 0.2 mL of PBS via tail vein for tumor development.
Animals were selected for grouping on day 3 after tumor implantation when the average bioluminescence measurement reached 3.18×107 photons/sec. A high dose pulse regimen (i.e. 100 mg/kg daily for seven days) was applied for APG-115 in this study.

[2] = system: KMS-11 (multiple myeloma (MM)); experiment: CellTiter-Glo (CTG) cell proliferation assay, KMS-11; type: cell-based; details: Homo sapiens; KMS-11, single agent alone, 24 hours; read-out: IC50 for inhibition of proliferation
Procedure: (§1) Anti-proliferative effects were tested by CellTiter-Glo® (CTG) assay. Cells were seeded in 96-well plates and treated with different concentrations of test substance for 24 hours. By using 9 different concentrations of Compound 6 (which were selected in a 3× gradient between 10-3 and 101 μM, i.e., 0.0016, 0.0045, 0.014, 0.041, 0.12, 0.36, 1.1, 3.2, 10 μM) in combination with 3 different concentrations of MDM2 inhibitor (e.g., APG-115) in action for 24 hours, the effects of Compound 6 in combination with the drug were tested. Each test dose was tested with 3 replicate wells.
(§2) Usually, 9 series of doses of the test substance were selected, and added to 96-well plates, 5 μl/well. For the combination experiment, the final volume of the two test substances was 5 μl/well. […] After mixing on a shaker for 2 minutes, leaving at room temperature for 10 minutes, the fluorescence value was read by using a Biotek synergy HIMF plate reader. Using the average fluorescence value of 3 replicate wells, the percentage of cell viability was calculated by the following formula: Cell viability (%)=(fluorescence value of test well—fluorescence value of negative control well)/(fluorescence value of vehicle control-fluorescence value of negative control group)×100%
(§3) The IC50 was calculated using the nonlinear regression data analysis method of Graphpad Prism 6.0 software ([…]). […]

[3] = system: KMS-26 (multiple myeloma (MM)); experiment: CellTiter-Glo (CTG) cell proliferation assay, KMS-26; type: cell-based; details: KMS-26, single agent alone, 24 hours; read-out: IC50 for inhibition of proliferation
Procedure: as §1, §2, §3

CCN1[C@@H](C(=O)NC23CCC(C(=O)O)(CC2)CC3)[C@H](c2cccc(Cl)c2F)[C@]2(C(=O)Nc3cc(Cl)ccc32)C12CCCCC2 [APG-115]
anti-leukemia activity / bioluminescence signals in words [1]: remarkedly decreased bioluminescence signals

O=C(NS(=O)(=O)c1ccc(NC[C@H]2COCCO2)c([N+](=O)[O-])c1)c1ccc(N2CCN(CC3=C(c4ccc(Cl)cc4)CC4(CCC4)CC3)CC2)cc1Oc1cnc2[nH]ccc2c1 [Compound 6, (S)-N-((4-(((1,4-dioxan-2-yl)methyl)amino)-3-nitrophe-nyl)sulfonyl)-2-((1H-pyrrolo[2,3-b]pyridin-5-yl)oxy)-4-(4-((6-(4-chlorophenyl)spiro[3.5]non-6-en-7-yl)meth-yl)piperazin-1-yl)benzamide]
pIC50 [2]: 4.97 | pIC50 [3]: 4.83 | anti-leukemia activity / bioluminescence signals in words [1]: limited anti-leukemia activity
